# According to US20230293644A1, “ANTI-INFLAMMATORY PEPTIDES AND COMPOSITION COMPRISING THE SAME” (Gemvax & KAEL Co., Ltd., priority 2012, published 2023):
# System: TNF-α
# Assay: Screening of TNF-α inhibitory effect, LPS-stimulated PBMC-derived monocytes (Example 2)
# Format: cell-based, human
# Details: 4 uM peptide, 2 hrs, LPS 10 ng/ml; for TNF-α inhibiting effect compared to the group treated with LPS and estrogen: estrogen 20 nM
# Method: PBMC (peripheral blood mononuclear cells) layer was separated from blood samples (50 ml) collected in healthy subjects using Biocoll Separating Solution (Biochrom AG, Berlin, Germany). The collected PBMC were enriched in RPMI 1640 medium containing 20% human serum for 30 mins, and then transferred to 100-mm polystyeren cell culture plate coated with human serum for incubation for 2 hrs at 37° C., 5% CO^2 incubator. Monocytes were detached from the bottom of the plate using cold PBS, and incubated to reach the number of 1 × 10^5 cell/well in 96-well plate with RPMI 1640 medium (supplemented with penicillinstreptomycin; […], human serum; 20%) over night.
# ELISA was performed to find out how the peptides of the PEP RIA series influence TNF-α level. PBMC-derived monocytes were incubated to reach the number of 1 × 10^5 cells per well in a 96-well plate and then treated with LPS (lipopolysaccharide; 10 ng/ml, Sigma) for 2 hours. To the monocytes that were washed three times with PBS, OPTI-MEM culture medium was added to induce cell starvation for an hour, 4 µM of the peptide was taken out and incubated for 2 hours. There were three negative control groups. The first group was not treated with anything. The second group that was treated with estrogen (in this experiment, estradiol was used as a kind of estrogen). The third group was treated with LPS (10 ng/ml) or with LPS (10 ng/ml) as well as estrogen (20 nM). PEP1 that was confirmed to have TNF-α inhibiting activity was used as a positive control to measure TNF-α inhibiting activity. After incubation, TNF-α was measured by following the ELISA kit manual (R&D, Minneapolis, MN, USA). The details of quantification method can be found in Experiment 2.2 of Example 1.
# Using the method stated above, Peptides with TNF-α inhibiting effect were screened. PBMC-derived monocytes were stimulated with LPS (10 ng/ml), which is endotoxin, for 2 hours and were induced to starve by adding OPTI-MEM for 1 hour. After that, 4 uM of 179 peptides were treated and incubated for 2 hrs. The amount of TNF-α in the cell culture medium was measured using ELISA, and the peptides with TNF-α inhibiting effect were screened by comparing to the negative and positive controls (FIG. 3 to FIG. 23).
Substance,TNF-α inhibiting effect compared to the control group treated with only LPS,TNF-α inhibiting effect compared to the group treated with LPS and estrogen
AEVRQHREARPALLTSRLRFIPKPDG (listed as Homo sapiens) [SEQ ID NO: 54],showed TNF-α inhibiting effect,showed TNF-α inhibiting effect
AEVRQHREARPALLTSRLRFIPKPDGL (listed as Homo sapiens) [SEQ ID NO: 55],showed TNF-α inhibiting effect,showed TNF-α inhibiting effect
AEVRQHREARPALLTSRLRFIPKPDGLR (listed as Homo sapiens) [SEQ ID NO: 56],showed TNF-α inhibiting effect,showed TNF-α inhibiting effect
AEVRQHREARPALLTSRLRFIPKPDGLRP (listed as Homo sapiens) [SEQ ID NO: 57],showed TNF-α inhibiting effect,
AEVRQHREARPALLTSRLRFIPKPDGLRPI (listed as Homo sapiens) [SEQ ID NO: 58],showed TNF-α inhibiting effect,
ALLTSR (listed as Homo sapiens) [SEQ ID NO: 142],showed TNF-α inhibiting effect,
ALLTSRL (listed as Homo sapiens) [SEQ ID NO: 141],showed TNF-α inhibiting effect,
ALLTSRLRF (listed as Homo sapiens) [SEQ ID NO: 140],showed TNF-α inhibiting effect,showed TNF-α inhibiting effect
ARPA (listed as Homo sapiens) [SEQ ID NO: 119],showed TNF-α inhibiting effect,
ARPAL (listed as Homo sapiens) [SEQ ID NO: 118],showed TNF-α inhibiting effect,
ARPALL (listed as Homo sapiens) [SEQ ID NO: 117],showed TNF-α inhibiting effect,showed TNF-α inhibiting effect
ARPALLT (listed as Homo sapiens) [SEQ ID NO: 116],showed TNF-α inhibiting effect,showed TNF-α inhibiting effect
ARPALLTSRLRF (listed as Homo sapiens) [SEQ ID NO: 111],showed TNF-α inhibiting effect,
ARPALLTSRLRFI (listed as Homo sapiens) [SEQ ID NO: 110],showed TNF-α inhibiting effect,showed TNF-α inhibiting effect
ARPALLTSRLRFIP (listed as Homo sapiens) [SEQ ID NO: 104],showed TNF-α inhibiting effect,
ARPALLTSRLRFIPK (listed as Homo sapiens) [SEQ ID NO: 91],showed TNF-α inhibiting effect,showed TNF-α inhibiting effect
EAEVRQHREARPALLTSRLRFIPK (listed as Homo sapiens) [SEQ ID NO: 9],showed TNF-α inhibiting effect,showed TNF-α inhibiting effect
EAR [SEQ ID NO: 90],showed TNF-α inhibiting effect,showed TNF-α inhibiting effect
EARP (listed as Homo sapiens) [SEQ ID NO: 89],showed TNF-α inhibiting effect,showed TNF-α inhibiting effect
EARPA (listed as Homo sapiens) [SEQ ID NO: 88],showed TNF-α inhibiting effect,showed TNF-α inhibiting effect

Substance,TNF-α inhibiting effect compared to the control group treated with only LPS,TNF-α inhibiting effect compared to the group treated with LPS and estrogen
EARPALLTS (listed as Homo sapiens) [SEQ ID NO: 84],showed TNF-α inhibiting effect,
EARPALLTSR (listed as Homo sapiens) [SEQ ID NO: 83],showed TNF-α inhibiting effect,showed TNF-α inhibiting effect
EARPALLTSRL (listed as Homo sapiens) [SEQ ID NO: 82],showed TNF-α inhibiting effect,showed TNF-α inhibiting effect
EARPALLTSRLR (listed as Homo sapiens) [SEQ ID NO: 81],showed TNF-α inhibiting effect,showed TNF-α inhibiting effect
EARPALLTSRLRF (listed as Homo sapiens) [SEQ ID NO: 80],showed TNF-α inhibiting effect,showed TNF-α inhibiting effect
EARPALLTSRLRFIPKP (listed as Homo sapiens) [SEQ ID NO: 65],showed TNF-α inhibiting effect,showed TNF-α inhibiting effect
EARPALLTSRLRFIPKPD (listed as Homo sapiens) [SEQ ID NO: 66],showed TNF-α inhibiting effect,
EARPALLTSRLRFIPKPDGLRPI (listed as Homo sapiens) [SEQ ID NO: 70],showed TNF-α inhibiting effect,showed TNF-α inhibiting effect
EARPALLTSRLRFIPKPDGLRPIV (listed as Homo sapiens) [SEQ ID NO: 71],showed TNF-α inhibiting effect,showed TNF-α inhibiting effect
EARPALLTSRLRFIPKPDGLRPIVN (listed as Homo sapiens) [SEQ ID NO: 72],showed TNF-α inhibiting effect,showed TNF-α inhibiting effect
EARPALLTSRLRFIPKPDGLRPIVNMD (listed as Homo sapiens) [SEQ ID NO: 74],showed TNF-α inhibiting effect,
ELSEAEVRQHREARPALLTSRLRFIPK (listed as Homo sapiens) [SEQ ID NO: 12],showed TNF-α inhibiting effect,
EVRQHREARPALLTSRLRFIPKPD (listed as Homo sapiens) [SEQ ID NO: 42],showed TNF-α inhibiting effect,showed TNF-α inhibiting effect
EVRQHREARPALLTSRLRFIPKPDG (listed as Homo sapiens) [SEQ ID NO: 43],showed TNF-α inhibiting effect,showed TNF-α inhibiting effect
EVRQHREARPALLTSRLRFIPKPDGL (listed as Homo sapiens) [SEQ ID NO: 44],showed TNF-α inhibiting effect,showed TNF-α inhibiting effect
EVRQHREARPALLTSRLRFIPKPDGLR (listed as Homo sapiens) [SEQ ID NO: 45],showed TNF-α inhibiting effect,
EVRQHREARPALLTSRLRFIPKPDGLRP (listed as Homo sapiens) [SEQ ID NO: 46],showed TNF-α inhibiting effect,
FIPK (listed as Homo sapiens) [SEQ ID NO: 102],showed TNF-α inhibiting effect,showed TNF-α inhibiting effect
HREARPALLTSRLRFIPKP (listed as Homo sapiens) [SEQ ID NO: 17],showed TNF-α inhibiting effect,showed TNF-α inhibiting effect
HREARPALLTSRLRFIPKPD (listed as Homo sapiens) [SEQ ID NO: 18],showed TNF-α inhibiting effect,showed TNF-α inhibiting effect
